Among the test systems are HCC-2998 colon; SF-295 CNS; KM12 colon; A498 renal; PC-3 prostate; HOP-62 NSCLC; HOP-92 NSCLC; MDA-MB-231 breast; SK-MEL-2 melanoma; SR leukemia.
What all share (experiment): DTP human tumour cell line panel, 48 h

Drawing on PubChem BioAssay (NCI), this text covers GI50 and TGI for twelve molecules.

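Values below derive from 48-hour exposures of cells grown in 96-well plates, with endpoints linearly interpolated between the two concentrations bracketing the appropriate inhibition level. Abbreviation: GI50, concentration required for 50% inhibition of growth. TGI denotes the concentration required for complete inhibition of growth.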

In the case of `CCN1c2ccccc2C(Cl)(c2ccc(N(C)C)cc2)c2ccccc21`, the GI50 was 10.9 µM with HCC-2998 colon; 21.7 µM in the test on SF-295 CNS; 4.41 µM in the test on KM12 colon; 59.6 µM with A498 renal; 2.18 µM in the test with PC-3 prostate; 4.27 µM in the test on HOP-62 NSCLC. The GI50 in the test with HOP-92 NSCLC was 2.84 µM; in the test with MDA-MB-231 breast, 13.1 µM. Further, the TGI with HCC-2998 colon is 23.4 µM; with SF-295 CNS it was 73.8 µM; in the test with KM12 colon, 15.6 µM; in the test on A498 renal, > 100 µM; with PC-3 prostate, 9.88 µM; with HOP-62 NSCLC it was 17.3 µM. The values for the TGI in the test with HOP-92 NSCLC and in the test on MDA-MB-231 breast were 17 µM and 37.5 µM, respectively.

Turning to `COc1ccccc1C#Cc1ccccc1C#CCCCCCC#Cc1ccccc1C#Cc1ccccc1OC`, the GI50 in the test on HCC-2998 colon was 18.8 µM; in the test on SF-295 CNS, > 100 µM; in the test on KM12 colon it was 75 µM; in the test on A498 renal it was > 100 µM; with PC-3 prostate, > 100 µM; in the test with HOP-62 NSCLC, > 100 µM. The GI50 is > 100 µM in the test with SK-MEL-2 melanoma and 60.3 µM in the test with MDA-MB-231 breast. Moreover, the TGI in the test on HCC-2998 colon was 69.7 µM; in the test with SF-295 CNS, > 100 µM; in the test with KM12 colon it was > 100 µM; with A498 renal, > 100 µM; in the test on PC-3 prostate, > 100 µM; in the test on HOP-62 NSCLC, > 100 µM. The TGI with SK-MEL-2 melanoma and with MDA-MB-231 breast was > 100 µM throughout.

Take `CCOC(=O)C1SC(=Nc2ccc(Cl)c(Cl)c2)N=C1C` (stereo not drawn): the concentration for total growth inhibition (TGI) in the test on HCC-2998 colon was > 100 µM; in the test with SF-295 CNS, > 100 µM; with KM12 colon it was > 100 µM; in the test on A498 renal it was 84.3 µM; in the test on HOP-62 NSCLC, > 100 µM; in the test with SK-MEL-2 melanoma, > 100 µM.

`Cc1cc(NS(=O)(=O)c2ccc(NC(=O)c3cccc4c(Nc5ccc(S(=O)(=O)N=C(N)N)cc5)c5ccccc5nc34)cc2)no1`: the TGI with HCC-2998 colon, in the test on SF-295 CNS, in the test with KM12 colon, in the test on SR leukemia, in the test with A498 renal and in the test on HOP-62 NSCLC was > 100 µM each time. In addition, the total growth inhibition concentration (TGI) with HOP-92 NSCLC is > 100 µM.

For `CC#CC1/C(=C\C(=O)OC)CCCC1O` (stereo not drawn), the TGI in the test with HCC-2998 colon, with SF-295 CNS, in the test on KM12 colon, in the test with SR leukemia, in the test with A498 renal and in the test with HOP-62 NSCLC was > 100 µM throughout. In addition, the TGI in the test with SK-MEL-2 melanoma is > 100 µM.

As for `COc1ccc(-n2c3c(c4c(CN5CCOCC5)c(O)ccc42)CCc2ccccc2C3=O)cc1`, the GI50 in the test on HCC-2998 colon was > 100 µM; with SF-295 CNS, > 100 µM; with KM12 colon, > 100 µM; in the test on A498 renal it was > 100 µM; with PC-3 prostate it was 16.9 µM; with HOP-62 NSCLC, > 100 µM. The GI50 in the test on HOP-92 NSCLC is 59.5 µM; in the test on SK-MEL-2 melanoma, > 100 µM; in the test with MDA-MB-231 breast it was 52.1 µM. Besides, the TGI in the test with HCC-2998 colon, in the test on SF-295 CNS, with KM12 colon, in the test on A498 renal, with PC-3 prostate and in the test on HOP-62 NSCLC was > 100 µM in each case. Also, the concentration for total growth inhibition (TGI) in the test on HOP-92 NSCLC, with SK-MEL-2 melanoma and in the test on MDA-MB-231 breast was > 100 µM in each case.

Consider `Cc1cc(=O)oc2cc(OCc3c(F)cccc3Cl)ccc12`, for which the TGI in the test on SF-295 CNS is 52.9 µM; with A498 renal it was > 100 µM; in the test on PC-3 prostate, > 100 µM; in the test with HOP-62 NSCLC it was 38 µM; in the test on HOP-92 NSCLC it was 33.2 µM; in the test with SK-MEL-2 melanoma, > 100 µM. The TGI with MDA-MB-231 breast was > 100 µM.

In the case of `Nc1c(C(=O)Nc2ccccc2)[n+]([O-])c2ccccc2[n+]1[O-]`, the TGI in the test on HCC-2998 colon came out at 32.2 µM; in the test on SF-295 CNS, 41.1 µM; in the test with KM12 colon it was 30.4 µM; in the test on A498 renal, 31 µM; with HOP-62 NSCLC, 34.4 µM; in the test with HOP-92 NSCLC it was 32.1 µM. Moreover, in the test on SK-MEL-2 melanoma, the TGI was 33.5 µM.

Take `CC1=CCC23C(C1)OC(Br)(C=CC2(C)O)C3(C)C` (stereo not drawn): the TGI with HCC-2998 colon, in the test on SF-295 CNS, in the test with KM12 colon, in the test on A498 renal, in the test on HOP-92 NSCLC and in the test with SK-MEL-2 melanoma was > 100 µM each time.

`Cc1ccc(-c2cc(C3=CC(=O)C=CC3=O)n(-c3ccc(S(N)(=O)=O)cc3)n2)cc1`: the GI50 with SF-295 CNS is > 100 µM; in the test on KM12 colon it was 24 µM; in the test with PC-3 prostate, 36.5 µM; in the test with HOP-62 NSCLC it was 69.7 µM; in the test on HOP-92 NSCLC, 35.6 µM; with SK-MEL-2 melanoma, > 100 µM. Moreover, the GI50 in the test with MDA-MB-231 breast is 20.6 µM. Further, the TGI with SF-295 CNS, in the test with KM12 colon, in the test with PC-3 prostate, with HOP-62 NSCLC, with HOP-92 NSCLC and in the test with SK-MEL-2 melanoma was > 100 µM throughout. The TGI with MDA-MB-231 breast is 72.8 µM.

In the case of `O=Nc1ccc2ccccc2c1O`, the GI50 in the test with HCC-2998 colon was 14.7 µM; in the test with SF-295 CNS it was 7.78 µM; with KM12 colon, 6.23 µM; in the test on A498 renal, 14.3 µM; with PC-3 prostate it was 2.61 µM; with HOP-92 NSCLC, 13.4 µM. The GI50 is 2.34 µM in the test with SK-MEL-2 melanoma and 10 µM with MDA-MB-231 breast. Also, the TGI turned out to be 29.1 µM with HCC-2998 colon; 25.4 µM with SF-295 CNS; 19.2 µM in the test on KM12 colon; 28.2 µM with A498 renal; 11.9 µM with PC-3 prostate; 27.3 µM with HOP-92 NSCLC. In addition, the TGI with SK-MEL-2 melanoma was determined as 5.29 µM; with MDA-MB-231 breast, 25.1 µM.

On to `Cc1c2c[n+](C(C)C)ccc2c(C)c2c1[nH]c1ccccc12`, for which the GI50 in the test on HCC-2998 colon was 2.99 µM; with SF-295 CNS it was 1.32 µM; in the test on KM12 colon, 1.14 µM; with A498 renal, 1.94 µM; in the test with PC-3 prostate, 2.59 µM; with HOP-62 NSCLC it was 2.35 µM. For the same molecule, the GI50 in the test on HOP-92 NSCLC was 1.86 µM; in the test with SK-MEL-2 melanoma, 2.89 µM; in the test with MDA-MB-231 breast, 4.86 µM. The TGI in the test on HCC-2998 colon was 13.7 µM; with SF-295 CNS, 20 µM; in the test on KM12 colon, 10.9 µM; in the test with A498 renal it was 64 µM; in the test with PC-3 prostate, 40.6 µM; in the test with HOP-62 NSCLC it was 36.1 µM. Besides, the values for the TGI with HOP-92 NSCLC, in the test on SK-MEL-2 melanoma and in the test on MDA-MB-231 breast were 6.95 µM, 9.81 µM and 43 µM, respectively.

As a reminder, the GI50 is the concentration giving 50% growth inhibition. The TGI is the concentration giving total growth inhibition. Read a low TGI as more potent growth arrest.
